Experimental findings from patent US20230270881A1, “ONCOGENIC TRIM37 IS A TARGETABLE EPIGENETIC DRIVER OF METASTASIS AND LINKS CHEMORESISTANCE AND METASTATIC FATE IN TRIPLE-NEGATIVE BREAST CANCER” (University of Virginia Patent Foundation, priority 2020, published 2023) are described below.

One assay has as its system HCC1806 tumors. The assay is described as follows: NSG tumor xenograft, Dox-induced TRIM37 upregulation. Type of assay: in vivo. To be noted: mice bearing HCC1806RR subcutaneous tumors, 2 mg/kg Dox. As to the method: (§1) NSG tumor xenograft studies. All animal procedures were conducted under the accordance of the University of Virginia IACUC with approved protocol (4112 and 4222). For different cell lines, weight and aged matched female NSG mice were injected subcutaneously with 2×10^6 TNBC cells in their right flank with indicated cell line in matrigel. 2×10^6 HCC1806RR or 231-2b were injected in 100 µl volume. For Dox-induced TRIM37 upregulation studies in tumor, mice bearing ~200 mm^3 HCC1806 tumors weight matched animals were randomly assigned into groups and injected with 2 mg/kg Dox. Tumors were harvested 24 hrs. following Dox treatment. For smart nanoparticles efficiency in vivo, mice bearing ~200 mm^3 231-2b tumors weight matched animals were randomly assigned into groups and injected with control or smart nanoparticles. At the endpoint, RNA and protein lysates were prepared from isolated tumors and analyzed by western blotting.

Another assay deals with 231-2b tumors. The assay is described as follows: NSG tumor xenograft, smart nanoparticles with or without Dox. Type of assay: in vivo, NSG mice. To be noted: 231-2b xenografts; 1.2 mg/kg nanoparticles intra-tumor every three days for 18 days; 2 mg/kg Dox two doses. On the procedure:
as §1
To investigate the outcome of TRIM37 targeting in clinical settings, we challenged 231-2b-derived xenografts with smart nanoparticles in combination with chemotherapy. When tumors reached the size of ~50 mm^3, animals received two doses of either 2 mg/kg Dox or vehicle (FIG. 7J). Furthermore, within each group, animals were randomly administered 1.2 mg/kg (~4×10^7nanoparticles) of smart or control nanoparticles intra-tumor every three days for 18 days (FIG. 7J).

A further assay has as its system TRIM37. Nature of the assay: Immunoblotting of TRIM37 in treated cells. Type of assay: cell-based, human. As to the method:
Immunoblotting. Cell extracts were prepared by lysing cell pellet in RIPA buffer supplemented with 1 mM sodium ortho-vanadate and 10 mM PMSF. To prepare protein extract from mouse tissue, it was homogenized in lysis buffer (1% SDS, 1 mM sodium ortho-vanadate, 10 mM Tris pH 7.4 and protease inhibitor). Immunoblots were probed using antibodies against TRIM37 (Abcam), PARP (Cell Signaling Technology), p21 (Cell Signaling Technology), γ-ph-H2AX (Cell Signaling Technology), RAD51C (Invitrogen), ph-ATM (Cell Signaling Technology), ph-STAT1 (Cell Signaling Technology), ph-STAT3 (Cell Signaling Technology), ph-STAT5 (Cell Signaling Technology), BIM (Abcam), FOLR1 (R&D) and α-tubulin (Invitrogen).
A general note: In western blotting, separated proteins are transferred to a membrane and probed.

As for `COc1cccc2c1C(=O)c1c(O)c3c(c(O)c1C2=O)C[C@@](O)(C(=O)CO)C[C@@H]3O[C@H]1C[C@H](N)[C@H](O)[C@H](C)O1` [doxorubicin], the results for the “TRIM37 in xenograft tumors” value in the assay on HCC1806 tumors and in the assay with HCC1806 tumors (listed as dox) were “upregulated TRIM37” and “increased TRIM37 level”, respectively. In addition, the tumor growth entry in the assay with 231-2b tumors was “significantly attenuated”. For the same compound, the TRIM37 expression result is “no increase” with TRIM37 (MCF7 or MCF10A cells); “dose- and time-dependent upregulation” in the assay with TRIM37 (MDA MB 468, HCC1806 and MDA MB 231 cells).
